Assay [1] relates to Danio rerio embryo/larva. Briefly: BMC edema; higher = less potent. To be noted: max tested concentration (log10 uM): 2; exposure: 6-8 hpf to 5 dpf, scored at 6 dpf. On the procedure: (§1)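 Zebrafish embryos (with chorion) were exposed from 6-8 hpf to each PFAS (8-point half-log series, top concentration up to 100 uM, 0.4% DMSO, sealed plates, 26 C; n = 6 embryos per concentration), rinsed at 5 dpf and scored at 6 dpf by two blinded observers for mortality, hatching and malformations. Endpoint scores are the % of living larvae affected (dead larvae excluded; […]). Curves were fitted with tcpl (cutoff 16%), and the BMC is the concentration at a benchmark response of 21.6%.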

In assay [2] the test system is Danio rerio embryo/larva. Briefly: BMC craniofacial defects; higher = less potent. Conditions: max tested concentration (log10 uM): 2; exposure: 6-8 hpf to 5 dpf, scored at 6 dpf. On the procedure:
as §1

Assay [3] relates to Danio rerio embryo/larva. Briefly: BMC swim bladder non-inflation; higher = less potent. Conditions: exposure: 6-8 hpf to 5 dpf, scored at 6 dpf. On the procedure: as §1
Assay [4] deals with Danio rerio embryo/larva. Briefly: BMC any abnormality; max tested concentration (log10 uM): 2; higher = less potent. Conditions: exposure: 6-8 hpf to 5 dpf, scored at 6 dpf. On the procedure:
as §1

Assay [5] relates to Danio rerio embryo/larva. Briefly: max % larvae unhatched across tested concentrations; max tested concentration (log10 uM): 2; higher = more toxic. To be noted: exposure: 6-8 hpf to 5 dpf, scored at 6 dpf.
Assay [6] deals with Danio rerio embryo/larva. Briefly: max % larvae dead across tested concentrations; max tested concentration (log10 uM): 2; higher = more toxic; extreme values may be limits of the assay. To be noted: exposure: 6-8 hpf to 5 dpf, scored at 6 dpf.
The subject of assay [7] is Danio rerio embryo/larva. Briefly: max % larvae with any abnormality across tested concentrations; max tested concentration (log10 uM): 2; higher = more toxic; extreme values may be limits of the assay. Conditions: exposure: 6-8 hpf to 5 dpf, scored at 6 dpf.
Assay [8] deals with Danio rerio embryo/larva. Briefly: BMC abnormal position; higher = less potent. Conditions: max tested concentration (log10 uM): 2; exposure: 6-8 hpf to 5 dpf, scored at 6 dpf. On the procedure:
as §1

Assay [9] has as its system Danio rerio embryo/larva. Briefly: BMC mortality; max tested concentration (log10 uM): 2; higher = less potent. To be noted: exposure: 6-8 hpf to 5 dpf, scored at 6 dpf. On the procedure:
as §1

For assay [10], the system named is Danio rerio embryo/larva. Briefly: BMC general abnormality; higher = less potent. Conditions: exposure: 6-8 hpf to 5 dpf, scored at 6 dpf. On the procedure:
as §1

For assay [11], the system named is Danio rerio embryo/larva. Briefly: max % larvae with pigmentation defects across tested concentrations; higher = more toxic. Conditions: exposure: 6-8 hpf to 5 dpf, scored at 6 dpf.
The test system of assay [12] is Danio rerio embryo/larva. Briefly: max % larvae with edema across tested concentrations; higher = more toxic; extreme values may be limits of the assay. Conditions: exposure: 6-8 hpf to 5 dpf, scored at 6 dpf.
The test system of assay [13] is Danio rerio embryo/larva. Briefly: max % larvae with tail defects across tested concentrations; higher = more toxic; extreme values may be limits of the assay. Conditions: exposure: 6-8 hpf to 5 dpf, scored at 6 dpf.
Assay [14] has as its system Danio rerio embryo/larva. Briefly: max % larvae with blood pooling across tested concentrations; higher = more toxic; extreme values may be limits of the assay. Conditions: exposure: 6-8 hpf to 5 dpf, scored at 6 dpf.
In assay [15] the test system is Danio rerio embryo/larva. Briefly: max % larvae generally abnormal across tested concentrations; higher = more toxic; extreme values may be limits of the assay. Conditions: exposure: 6-8 hpf to 5 dpf, scored at 6 dpf.
For assay [16], the system named is Danio rerio embryo/larva. Briefly: max % larvae with spinal defects across tested concentrations; higher = more toxic; extreme values may be limits of the assay. Conditions: exposure: 6-8 hpf to 5 dpf, scored at 6 dpf.
In assay [17] the test system is Danio rerio embryo/larva. Briefly: max % larvae with abnormal position across tested concentrations; higher = more toxic; extreme values may be limits of the assay. To be noted: exposure: 6-8 hpf to 5 dpf, scored at 6 dpf.
The subject of assay [18] is Danio rerio embryo/larva. Briefly: max % larvae with craniofacial defects across tested concentrations; higher = more toxic; extreme values may be limits of the assay. Conditions: exposure: 6-8 hpf to 5 dpf, scored at 6 dpf.
Assay [19] has as its system Danio rerio embryo/larva. Briefly: max % larvae with uninflated swim bladder across tested concentrations; higher = more toxic; extreme values may be limits of the assay. To be noted: exposure: 6-8 hpf to 5 dpf, scored at 6 dpf.
Setting [20] is: max tested concentration (log10 uM): 2.

As to `OCCC(F)(F)C(F)(F)C(F)(F)C(F)(F)C(F)(F)C(F)(F)F` [2-(Perfluorohexyl)ethanol], in [1], the BMC edema came out at 3.37 µM. Besides, the BMC craniofacial defects in [2] came to 27.9 µM. The “BMC swim bladder non-inflation” value in [3] (setting [20]) turned out to be 26.2 µM. In assay [4], this compound yielded a BMC any abnormality of 10.4 µM. The “max % larvae unhatched across tested concentrations” value in assay [5] amounted to 0%. In addition, the “max % larvae dead across tested concentrations” value in assay [6] was 8.33%. This compound also displayed a max % larvae in [7] of 89.6%.

`O=C(O)C(F)(F)C(F)(F)C(F)(F)C(F)(F)C(F)(F)C(F)(F)C(F)(F)C(F)(F)F` [Perfluorononanoic acid]: the BMC edema in assay [1] came to 28 µM. The compound also showed a BMC abnormal position in [8] of 87.8 µM. In [3] (setting [20]), the “BMC swim bladder non-inflation” value was found to be 25.5 µM. For the same compound, the BMC mortality in [9] amounted to 73.9 µM. The BMC any abnormality in [4] amounted to 25.5 µM. Further, in assay [5], the “max % larvae unhatched across tested concentrations” value is 0%. Further, the “max % larvae dead across tested concentrations” value in assay [6] was determined as 75%. Further, in assay [7], the max % larvae came out at 100%.

`NS(=O)(=O)C(F)(F)C(F)(F)C(F)(F)C(F)(F)C(F)(F)C(F)(F)F` [Perfluorohexanesulfonamide] (max tested concentration (log10 uM): 0.477121) returned a BMC general abnormality in assay [10] of 1.66 µM. Moreover, the max % larvae was found to be 0% in assay [11]; 85% in [12]; 10% in [13]; 0% in assay [14]; 5% in [16]; 30% in [17]. Moreover, the max % larvae in assay [18] was found to be 70%; in assay [19] it was 100%. The “max % larvae generally abnormal across tested concentrations” value in assay [15] came out at 85%.

Compound `O=C(O)C(F)(F)C(F)(F)C(F)(F)C(F)(F)C(F)(F)C(F)(F)C(F)(F)C(F)(F)C(F)(F)F` [Perfluorodecanoic acid] (max tested concentration (log10 uM): 1.47712) showed a BMC general abnormality in assay [10] of 11.2 µM. Moreover, the max % larvae in assay [11] turned out to be 0%; in [12] it was 50%; in assay [13] it was 0%; in assay [14], 0%; in [16], 0%; in [17] it was 0%. Also, the max % larvae came to 0% in [18] and 100% in assay [19]. Moreover, the “max % larvae generally abnormal across tested concentrations” value in [15] was 50%.

For the compound `OCCCCC(F)(F)C(F)(F)C(F)(F)C(F)(F)F` [4:4 Fluorotelomer alcohol], the BMC edema in assay [1] turned out to be 25.8 µM. For the same compound, in [2], the BMC craniofacial defects worked out at 34.7 µM. Also, in assay [3] (setting [20]), the “BMC swim bladder non-inflation” value was determined as 27.1 µM. Also, the BMC mortality in [9] was found to be 86.5 µM. Moreover, the BMC any abnormality in assay [4] is 25.5 µM. Besides, the “max % larvae unhatched across tested concentrations” value in assay [5] came out at 0%. Also, the “max % larvae dead across tested concentrations” value in [6] was 41.7%. In [7], this compound yielded a max % larvae of 97.9%.

As to `O=C(O)C(F)(F)OC(F)(F)C(F)(F)OC(F)(F)C(F)(F)C(F)(F)C(F)(F)F` [Perfluoro-3,6-dioxadecanoic acid], the BMC mortality in [9] stood at 75.3 µM. For the same compound, in [5], the “max % larvae unhatched across tested concentrations” value amounted to 0%. Besides, the “max % larvae dead across tested concentrations” value in [6] is 66.7%. The compound further registered a max % larvae in [7] of 91.7%.

Turning to `OCC(F)(F)C(F)(F)C(F)(F)C(F)(F)C(F)(F)C(F)(F)C(F)(F)C(F)(F)CO` [1H,1H,10H,10H-Perfluorodecane-1,10-diol], the “BMC swim bladder non-inflation” value in [3] (max tested concentration (log10 uM): 1) is 3.47 µM. In assay [9], this compound registered a BMC mortality of 19.5 µM. This compound also registered a BMC any abnormality in [4] of 4.08 µM. Also, the “max % larvae unhatched across tested concentrations” value in [5] was 0%. Further, in assay [6], the “max % larvae dead across tested concentrations” value was found to be 100%. Also, the max % larvae in [7] is 100%.

For `O=C(O)C(F)(F)C(F)(F)C(F)(F)C(F)(F)C(F)(F)C(F)(F)C(F)(F)C(F)(F)C(F)(F)C(F)F` [11-H-Perfluoroundecanoic acid] (max tested concentration (log10 uM): 1.47712), the BMC general abnormality in [10] is 12.6 µM. Further, the max % larvae amounted to 0% in assay [11]; 100% in assay [12]; 100% in [13]; 100% in assay [14]; 0% in [16]; 50% in assay [17]. Moreover, the max % larvae in assay [18] and in assay [19] was 100% each time. In assay [15], the “max % larvae generally abnormal across tested concentrations” value was 100%.

Source of the values: the supplement of paper PMC11281043.
